From patent publication US5545640A, “Protease inhibiting succinic acid derivatives” (Bio-Mega/Boehringer Ingeleheim Research Inc., priority 1995, dated 1996)

Key:
HIV protease = target: T1, HIV protease (Human immunodeficiency virus type 1 group M subtype B, UniProt P04585); assay: biochemical; details: recombinant HIV protease; decapeptide substrate; HPLC assay; read-out: IC50 (concentration causing 50% inhibition of HIV protease)
T1 construct: an HIV-encoded enzyme known as HIV protease
Description: The procedure is based on the capacity of the test compound to inhibit enzymatic cleavage by HIV protease of a decapeptide (the substrate) having an amino acid sequence which includes a known HIV protease cleavage site of a HIV polyprotein; see H. G. Krausslich et al., Proc. Natl. Acad. Sci. USA, 86, 807 (1989).
Anderson, S. Rakhit and C. Yoakim in the European patent application 443 560, published Aug. 28, 1991.

[1] = tested on: HIV (H9/HTLV-IIIB stock) in C8166 cells; assay: Cell culture assay: inhibition of syncytia formation in HIV-infected C8166 cells (antiviral, anti-HIV effect); type: cell-based, HIV (HTLV-IIIB); human T4 cell line; details: Human immunodeficiency virus 1; C8166 cells; H9/HTLV-IIIB, 50 times TCID50; 72 h, 37°; read-out: EC50 (concentration causing 50% inhibition of syncytia formation)
Description: Typical of such procedures are those described by S. Harada and N. Yamamoto, Jpn. J. Cancer Res. (Gann), 76, 432 (1985), and S. Harada et al., Science, 229, 563 (1985). An assay based on the latter procedures is described in the examples hereinafter.
In addition, Tables 1 to 8 list the results for exemplified compounds of formula 1 when assayed for antiviral (anti-HIV) effects according to the following protocol which is based on a cell culture assay previously described by Harada et al., supra. Transformed cells are used because of the rapidity with which HIV will replicate in the cells.
1. The test compound is dissolved in dimethylsulfoxide to a concentration of 5 mg/mL. The resultant solution .can be stored at 4° until use.
2. The resultant solution is diluted in RPMI 1640 (Gibco Laboratories, St. Lawrence, Mass., USA) to four times (4×) the final concentration which is to be tested. Once diluted in RPMI 1640, the solution is used in the cell culture assay within 4 h.
3. The latter solution (50 μL) is added to triplicate wells of a 96 well flat bottomed microtiter plate. RPMI (50 μL) also is added to control wells.
4. C8166 cells (5×10^4) in 50 μL of HEPES-buffered RPMI 1640 (pH=7.2), 10% heat inactivated fetal calf serum (FCS), […] gentamicin (complete media) are added to all wells.
5. Fifty times TCID50 of H9/HTLV-IIIB stock (stored in liquid nitrogen as cell culture supernatant in 50% FCS) in 100 μL of complete media is added to all wells. The infectious titer of the virus stocks is as previously determined by end point dilution on C8166 cells. The titer of stocks are stable for 6-12 months when stored at -193°.
6. Microtiter plates are then placed on level shelves of a 37°, 5% CO2 humidified incubator for 72 h.
7. Plates are then removed and centers of syncytia are counted in each well by low power phase contrast light microscopy. […] Control wells should have between 25 and 75 centers of syncytia per well.
8. Percent inhibition of syncytia formation is calculated by the formula: [formula]
The concentration of the test compound which causes a 50% inhibition of syncytia formation, i.e. the EC50, is determined by using the technique of serial dilution of the working solution at step 3 and graphically plotting the observed percent inhibition of syncytia formation against the various concentrations of the test compound.
In the following tables, assay results are listed for the exemplified compounds from the aforementioned recombinant HIV protease HPLC assay under the heading IC50 (nM) and from the cell culture assay under the heading EC50 (nM). Note that for some of the compounds listed in tables, the EC50 's have not been determined (ND).

SMILES | IC50 (HIV protease) | EC50 [1]
CC(C)C(NC(=O)C[C@@H](C(=O)NC[C@@H](O)[C@H](Cc1ccccc1)NC(=O)[C@H](CC(N)=O)NC(=O)c1ccc2ccccc2n1)C(C)(C)C)C(C)C [Entry 45] | 0.004 µM | 0.15 µM
Cc1ccc(C)c(C(=O)N[C@@H](Cc2ccccc2)[C@H](O)CNC(=O)[C@H](CC(=O)Nc2c(C)cccc2C)C(C)(C)C)c1 [Entry 74] | 0.002 µM | 0.37 µM
CCC(CC)NC(=O)CC(C(=O)NC[C@@H](O)[C@H](Cc1ccccc1)NC(=O)[C@H](CC(N)=O)NC(=O)c1ccc2ccccc2n1)C(C)(C)C (stereo partly drawn) [Entry 52] | 0.006 µM | 0.13 µM
